This is an account of results in PubChem BioAssay (NCI).

Values joined by “and” are separate entries in the source; they are usually repeats but may differ in a detail not shown here. Equal values may be shown once.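 Growth conditions: 96-well plates. Treatment: test compound, 48 hours, 5 concentrations. Analysis: linear interpolation between bracketing concentrations; unreached endpoints set to highest concentration. Abbreviation: GI50, concentration required for 50% inhibition of growth. TGI is the concentration that stops growth completely.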 Where only a bound is given, the exact number is not on record here.

The subject of the test is MDA-MB-468 breast. The test is described as follows: NCI-60 cell line screen, 48 h.
As to `O=C(/C=C\c1cccc([N+](=O)[O-])c1)c1ccccc1`, the GI50 was 1650 nM and the TGI was 9510 nM.

For the molecule `CCCCCCCCCCCCCCCCCC(=O)[O][Sn]([CH2]CCC)([CH2]CCC)[CH2]CCC`, the GI50 was 83.5 nM and the TGI worked out at 214 nM.

`CCN(CC)CCC(CNc1c2ccc([N+](=O)[O-])cc2nc2cc(OC)c(OC)cc12)c1ccccc1` (centres undefined): the GI50 was 324 nM and 229 nM; the TGI is 1630 nM and 1220 nM.

For the molecule `O=C(O[C@H]1CN[C@H](C#Cc2cc3ncnc(Nc4ccc(Cc5ccccc5)cc4)c3s2)C1)N1CCOCC1`, the GI50 was 1270 nM and the TGI worked out at 6370 nM.

Regarding `CC1=C(CN(O)C(N)=O)C2=C(C)C3(CC3)[C@@](C)(O)C(=O)C2=C1`, the GI50 was 141 nM and the TGI came out at 347 nM.

For the molecule `Nc1cccc(-c2nc3sccn3c2-c2ccnc(NCCCNS(=O)(=O)c3ccc(C(F)(F)F)cc3)n2)c1`, the GI50 was 2440 nM and the TGI was 33800 nM.

Take `O=C(/C=C/c1ccccc1Cl)c1ccc(O)cc1`: the GI50 was 2770 nM and the TGI is 13000 nM.

As to `COc1cc(C2=Nc3c/c(=C\c4c(O)[nH]c5ccc(Cl)cc45)ccc3=N2)cc(OC)c1OC`, the GI50 was 1970 nM and the TGI was 4410 nM.

Consider `Cn1c(=O)c(Sc2ccccc2F)cc2cnc(NC3CCOCC3)nc21`, for which the GI50 is over 25000 nM and the TGI is over 25000 nM.

For the molecule `COC(=O)c1c2c(c[n+]([O-])c1C)C(=O)C(NCc1ccccc1)=CC2=O`, the GI50 was 232 nM and the TGI is 672 nM.

As to `NC(=O)Cc1ccccc1Oc1nccc(-c2c(-c3ccc(F)cc3)ncn2C2CCNCC2)n1`, the GI50 is 8200 nM and the TGI was over 25000 nM.

On to `COc1cc(-c2nn(C)nc2-c2cc3ccccc3s2)cc(OC)c1OC`, for which the GI50 is 82.8 nM and the TGI was over 100000 nM.

For `C=C1C(=O)O[C@H]2[C@H]1CC/C(COC(=O)NCc1c[nH]c3ccc(OC)cc13)=C\CC[C@@]1(C)O[C@@H]21`, the GI50 is 1320 nM and the TGI was 4620 nM.

In the case of `COc1cccc(C2=NN(C(C)=O)C(c3cc(OC)c(OC)c(OC)c3)C2)c1` (centres undefined), the GI50 was 1010 nM and the TGI is over 30900 nM.

Take `CN(C)c1cc2c(Nc3ccc4nc(Cc5ccccc5)[nH]c4c3)ncnc2cn1`: the GI50 is over 9600 nM and the TGI is over 25000 nM.

With `O=C(Nc1cccc(-n2cc(-c3ccncc3)c(-c3cc(O)cc(Cl)c3)n2)c1)Nc1ccc(Cl)c(Cl)c1`, the GI50 is 1710 nM and the TGI came out at 7090 nM.

Take `CCCCN(CCCC)c1cc(C(=O)CCCCCN)c2ccccc2n1`: the GI50 was 1430 nM and the TGI stood at 3050 nM.

With `O=C(Nc1cccnc1)c1cccs1`, the GI50 was 603 nM and the TGI is over 100000 nM.

Take `Cc1nc(NC(=O)COc2cccc(/C=C3\COc4ccccc4C3=O)c2)sc1C`: the GI50 is 1760 nM and the TGI came out at 3840 nM.

With `Cc1ccccc1NC(=O)N/C(N)=N/c1nc2ccccc2s1`, the GI50 is 233 nM and the TGI is over 100000 nM.

`CCN1CCN(CCNc2nccc(-c3c(-c4cccc(O)c4)nc4sccn34)n2)S1(=O)=O`: the GI50 is 9040 nM and 12500 nM; the TGI was 32500 nM and 36600 nM.

Take `COc1ccc(S(=O)(=O)Nc2cc(/C=C\c3cc(OC)c(OC)c(OC)c3)cc(OC)c2OC)cc1OC`: the GI50 was 269 nM and the TGI was found to be 1290 nM.

As for `Clc1cccc(Cn2cc(Cc3cn(Cc4cccc(Cl)c4)c4ccccc34)c3ccccc32)c1`, the GI50 was 17000 nM and the TGI was determined as 37300 nM.

As to `CNC(=O)c1cc(Oc2ccc3nc(NC(=O)c4cc(C(F)(F)F)cc(C(F)(F)F)c4)sc3c2)ccn1`, the GI50 was 3180 nM and the TGI is 14200 nM.

In the case of `O=C1OCC2=C1C(c1ccccc1)c1cc3c(cc1N2CCO)CCC3` (centres undefined), the GI50 was 55.9 nM and the TGI came out at 156 nM.

On to `O=Cc1ncc(-c2ccc(C(F)(F)F)cc2)c(NC2CCCCCC2)n1`, for which the GI50 is over 10000 nM and the TGI was over 10000 nM.

Turning to `O=S(=O)(c1ccc2c(c1)C(=NO)c1cc(S(=O)(=O)N3CCCCC3)ccc1-2)N1CCCCC1`, the GI50 is 237 nM and 137 nM; the TGI is 608 nM and 277 nM.

Take `COc1ccc(Nc2nc(NCc3ccccc3)c3ccccc3n2)cc1`: the GI50 is 1610 nM and the TGI worked out at 3370 nM.

For the molecule `N#Cc1cc(-c2ccccc2)[nH]c1-c1nccc2ccccc12`, the GI50 was 3330 nM and the TGI is 44900 nM.

In the case of `COC(=O)C1=C(C(=O)Nc2cccnc2)C2OC1(C(Cc1ccccc1)Oc1ccccc1)C1OC21` (centres undefined), the GI50 is 1720 nM and the TGI came out at 4250 nM.

Take `CCc1ccc(/C(C#N)=C/C=C/c2ccccc2)cc1`: the GI50 was 838 nM and the TGI was 9870 nM.

For the molecule `NC(=O)c1ncn(C2OC(CO)C(O)C2O)n1` (centres undefined), the GI50 was 69700 nM and the TGI is over 100000 nM.

Turning to `COc1cccc(N2CCN(c3ncnc4c3[nH]c3ccc(F)cc34)C[C@@H]2C)c1`, the GI50 is 1590 nM and the TGI amounted to 5310 nM.

`Clc1ccc(N/N=C/c2ccccn2)nc1`: the GI50 was 260 nM and the TGI was found to be 1510 nM.

As to `CN(C)c1cc2c(cc1Sc1nc3c(N)nccc3n1CCNCC(C)(C)C)OCO2`, the GI50 was 268 nM and the TGI came out at 888 nM.

As to `CCNC(=O)Nc1ccc(-c2nc3c(c(N4CCOC[C@@H]4C)n2)CCN(C2COC2)C3)cc1`, the GI50 was 135 nM and 125 nM; the TGI is 1720 nM and 1380 nM.

Consider `NCC(=O)Nc1ccc(-n2nc(C(F)(F)F)cc2-c2ccc3c(ccc4ccccc43)c2)cc1`, for which the GI50 was 1560 nM and the TGI came to 3020 nM.

For the molecule `O=C(/C=C/c1ccccc1O)c1ccccc1`, the GI50 was 6060 nM and the TGI was 19200 nM.

For `CCOc1ccc(/C=N/Nc2cc(C)nc3ccc(Cl)cc23)cc1`, the GI50 was 1730 nM and the TGI worked out at 3270 nM.

As for `COc1c(Nc2ncc(Cl)c(N[C@@H]3[C@H]4C=CC(C4)[C@@H]3C(N)=O)n2)ccc2c1CC[C@@H](N1CCOCC1)CC2`, the GI50 is 2200 nM and the TGI was 8130 nM.

With `CCS(=O)(=O)c1ccc(OC)c(Nc2ncc(-c3cccc(-c4ccccc4F)c3)o2)c1`, the GI50 is 4950 nM and the TGI is over 25000 nM.

Take `C[C@H]1O[C@@H](O[C@H]2[C@@H](O)C[C@H](O[C@H]3[C@@H](O)C[C@H](O[C@H]4CC[C@]5(C)C6C[C@@H](O)[C@]7(C)[C@@H](C8=CC(=O)OC8)CC[C@]7(O)C6CC[C@@H]5C4)O[C@@H]3C)O[C@@H]2C)C[C@H](O)[C@@H]1O` (some centres undefined): the GI50 was 148 nM and the TGI worked out at 465 nM.

With `Cc1cc(N2CCOCC2)nc(N(CCNc2ccnc3cc(Cl)ccc23)Cc2ccco2)n1`, the GI50 was 2090 nM and the TGI turned out to be 6410 nM.

Regarding `Clc1ccc(-c2nc(-c3c[nH]c4ncccc34)cs2)cc1`, the GI50 is over 100000 nM and the TGI was over 100000 nM.

Turning to `C[C@H](Nc1ccc(C#N)n(C)c1=O)c1cc2cc(Cl)ccc2[nH]c1=O`, the GI50 was 21600 nM and the TGI amounted to 84000 nM.

On to `O=[N+]([O-])c1ccc(Oc2cccnc2)c([N+](=O)[O-])c1`, for which the GI50 was 3060 nM and the TGI was determined as 13800 nM.

Regarding `O=C(NNc1nc2cc(F)ccc2n2cccc12)c1ccncn1`, the GI50 was 293 nM and the TGI was 1650 nM.

As for `Cc1oncc1C(=O)Nc1ccc(C(F)(F)F)cc1`, the GI50 was 37100 nM and the TGI is over 100000 nM.

As for `O=C(c1ccc(F)c(F)c1Nc1ccc(I)cc1F)N1CC(O)([C@H]2CCCCN2)C1`, the GI50 was 4520 nM and the TGI was 10700 nM.

For `C=CC[Se]C(=O)c1ccccc1OC(C)=O`, the GI50 was 1780 nM and the TGI was determined as 3750 nM.

Consider `O=C1OCC2=C1C(c1cccc([N+](=O)[O-])c1)c1cc3c(cc1N2CCO)CCC3` (centres undefined), for which the GI50 was 147 nM and the TGI was found to be 8880 nM.

Regarding `CC(C)[C@@H]1NC(=O)[C@]2(C)CSC(=N2)c2csc(n2)CNC(=O)C[C@@H](/C=C/CCS)OC1=O`, the GI50 was 206 nM and the TGI turned out to be 4430 nM.
